Experimental data as given in ChEMBL document CHEMBL1147303, “Antimicrobial tetraprenylphenols from Suillus granulatus” (1989).
In brackets after ≈: the same amount, converted by molar mass.

Key:
Format in all cases: functional
Bacillus subtilis = test: Antibacterial activity against Bacillus subtilis by serial broth dilution assay
Aeromonas hydrophila = test: Antibacterial activity against Aeromonas hydrophila by serial broth dilution assay
Staphylococcus aureus = test: Antibacterial activity against Staphylococcus aureus ATCC 25923 by serial broth dilution assay
Hafnia alvei = test: Antibacterial activity against Hafnia alvei by serial broth dilution assay
Escherichia coli = test: Antibacterial activity against Escherichia coli ATCC 25922 by serial broth dilution assay
Micrococcus luteus = test: Antibacterial activity against Micrococcus luteus ATCC 4698 by paper disc-agar diffusion assay
Enterococcus faecalis = test: Antibacterial activity against Streptococcus faecalis by serial broth dilution assay
Proteus mirabilis = test: Antibacterial activity against Proteus mirabilis by serial broth dilution assay

| Compound | MIC (Bacillus subtilis) [µg/mL] | MIC (Aeromonas hydrophila) [µg/mL] | MIC (Staphylococcus aureus) [µg/mL] | MIC (Hafnia alvei) [µg/mL] | MIC (Escherichia coli) [µg/mL] | MIC (Micrococcus luteus) [µg/mL] | MIC (Enterococcus faecalis) [µg/mL] | MIC (Proteus mirabilis) [µg/mL] |
| --- | --- | --- | --- | --- | --- | --- | --- | --- |
| COc1ccc(O)c(O)c1C/C=C(\C)CC/C=C(\C)CC/C=C(\C)CCC=C(C)C | > 100 | > 100 | > 100 | > 100 | > 100 | 100 (≈ 242 µM) | > 100 | > 100 |
| COc1c(O)cc(O)cc1C/C=C(\C)CC/C=C(\C)CC/C=C(\C)CCC=C(C)C | > 100 | 0.78 (≈ 1.89 µM) | > 100 | > 100 | 1.56 (≈ 3.78 µM) | 6.25 (≈ 15.1 µM) | > 100 | > 100 |
| CC(=O)Oc1c(O)cc(O)cc1C/C=C(\C)CC/C=C(\C)CC/C=C(\C)CCC=C(C)C | > 100 | 12.5 (≈ 28.4 µM) | > 100 | > 100 | 6.25 (≈ 14.2 µM) | 50 (≈ 113 µM) | > 100 | > 100 |
| CC(=O)Oc1c(O)ccc(O)c1C/C=C(\C)CC/C=C(\C)CC/C=C(\C)CCC=C(C)C | > 100 | > 100 | > 100 | > 100 | 50 (≈ 113 µM) | 50 (≈ 113 µM) | 100 (≈ 227 µM) | > 100 |
| CC(C)=CCC/C(C)=C/CC/C(C)=C/CCC1(C)C=Cc2c(ccc(O)c2O)O1 (stereo not given) | > 100 | > 100 | > 100 | > 100 | > 100 | > 100 | > 100 | > 100 |
